{"source": "patent US6030841A", "about": "“Liver function test” (Norgine Limited, priority 1997, dated 2000)", "key": {"[1]": {"test": "Standard liver function tests, electrolytes and kidney function before and after 0.5 mg/kg b.w. CLF", "format": "in vivo, human", "protocol": "In five healthy volunteers, a 25-fold higher dose of CLF (0.5 mg/kg b.w.) was injected in order to further assess the appropriateness of the dose chosen and the safety of the compound. […] Table.\nTests of Liver Function Before And After CLF Dose of\n0.5 mg/Kg b.w. For 5 Healthy Patients."}, "[2]": {"test": "Plasma elimination of CLF after intravenous injection in healthy volunteers (and patients)", "format": "in vivo, human", "protocol": "A study was carried out in six healthy volunteers (1 female, 5 male), ages 30-53 years. Subjects were studied supine after overnight fasting. After an initial basal blood sample was taken, CLF in a dose of 0.02 mg/kg of body weight (b.w.) in physiological saline was injected intravenously during 15 seconds. Venous blood samples were collected from the opposite antecubital vein into gel and lithium heparin containers (sold under the Trade Name Vacutainers by Becton Dickinson Vacutainer Systems) at 2, 3, 4, 6, 10, 15, 20, 30, 60 and 90 minutes. The blood samples were then centrifuged and 0.5 ml aliquots of plasma were taken and added to 3.5 ml of methanol to precipitate plasma proteins, followed by further centrifugation. The supernatant (1 ml) was diluted to 3 ml with methanol and the fluorescence was then measured by spectrometer (Perkin Elmer LS5B Luminescence Spectrometer).\nCLF concentration (μg/ml) was derived from a calibration curve which expressed the equation: […]\nwhere y represents the measured fluorescence in fluorescence units at an excitation wavelength of 490 nm with emission at 520 nm and x represents the CLF concentration in μg/ml. The calibration curve was calibrated from fluorescence meaurements of solutions having known CLF concentrations followed by linear regression analysis.\nNon linear plasma elimination curves presented as percentage dose administered per liter of plasma were fitted to a tri-exponential model. The half life (t1/2 time) was calculated for the first (t1/2 1st phase), second (t1/2 2nd phase) and third (t1/2 3rd phase) phases of the elimination curves from the equations: […]\nwhere k1, k2 and k3 were calculated for each subject using the equation:\nCt =Ae^-k.sbsp.1^t +Be^-k.sbsp.2^t\nCt is the concentration of CLF at time t, A, B and C are the intercepts of each phase of elimination at t=0 k1, k2 and k3 are fractional disappearance rates of the three phases of elimination."}, "[3]": {"settings": "Horak et al., cited from earlier work"}, "[4]": {"settings": "radiolabelled, bi-exponential model, Cowen et al.; cited from earlier work"}, "[5]": {"settings": "after CLF 0.5 mg/kg b.w., only one value given"}, "[6]": {"settings": "CLF 0.02 mg/kg b.w. i.v., healthy volunteers, plasma, tri-exponential model"}}, "note": "Where two headings read alike, the source gives them in different places.", "data": [{"smiles": "CC(CCC(=O)NC(CCCCNC(=S)Nc1ccc(-c2c3ccc(=O)cc-3oc3cc(O)ccc23)c(C(=O)O)c1)C(=O)O)C1CCC2C3C(O)CC4CC(O)CCC4(C)C3CC(O)C12C", "note": "(stereo not shown) [CLF, cholyl-lysyl-fluorescein]", "values": [{"measurement": "Serum biochemistry including basic liver function tests, electrolytes and kidney function", "setting": "[1]; 0.5 mg/kg b.w. i.v., five healthy volunteers", "value": "did not change significantly"}, {"measurement": "plasma alkaline phosphatase levels post injection", "setting": "[1]; 0.5 mg/kg b.w. i.v., healthy volunteers, not statistically significant", "value": "consistent diminution"}, {"measurement": "bilirubin after CLF injection", "setting": "[1]; after CLF 0.5 mg/kg b.w., before: 10", "value": 11, "unit": "μM/L"}, {"measurement": "AST (aspartate aminotransferase) after CLF injection", "setting": "[1]; after CLF 0.5 mg/kg b.w., before: 17", "value": 16, "unit": "U/L"}, {"measurement": "Creatinine after CLF injection", "setting": "[1]; after CLF 0.5 mg/kg b.w., before: 94", "value": 89, "unit": "μM/L"}, {"measurement": "AlkP (alkaline phosphatase) after CLF injection", "setting": "[1]; after CLF 0.5 mg/kg b.w., before: 148", "value": 134, "unit": "U/L"}, {"measurement": "Albumin after CLF injection", "setting": "[1]; [5]", "value": 42, "unit": "g/L"}, {"measurement": "Urea after CLF injection", "setting": "[1]; [5]", "value": 4.3, "unit": "mM/L"}, {"measurement": "efficiency of hepatic clearance (elimination curves at 25-fold increased dose)", "setting": "[2]; 0.5 mg/kg b.w. i.v. versus 0.02 mg/kg, healthy volunteers", "value": "efficiency of hepatic clearance is unchanged"}, {"measurement": "percentage of fluorescence after 60 min (fluorescence at 60 min compared with 10 min)", "setting": "[2]; 60 min vs 10 min, plasma, healthy volunteers", "value": "13.1±1.6", "unit": "%"}, {"measurement": "Plasma retention at 90 minutes, percentage of the dose administered per liter of plasma", "setting": "[2]; 90 minutes, i.v., healthy volunteers", "value": 2.2, "unit": "%"}, {"measurement": "t1/2 1st phase of elimination", "setting": "[2]; [6]", "value": "1.7 ± 0.9", "unit": "min"}, {"measurement": "t1/2 2nd phase of elimination", "setting": "[2]; [6]", "value": "6.7 ± 1.6", "unit": "min"}, {"measurement": "t1/2 3rd phase of elimination", "setting": "[2]; [6]", "value": "68 ± 17", "unit": "min"}, {"measurement": "CLF plasma elimination compared with natural bile acids", "setting": "[2]; body of data, comparison with natural bile acids", "value": "very similar to the elimination of natural bile acids"}, {"measurement": "volume of distribution", "setting": "[2]; calculated as proposed by Thiordleifsson et al., 0.02 mg/kg", "value": "2214 ± 147", "unit": "mL"}, {"measurement": "CLF elimination curves of FIG. 2", "setting": "[2]; healthy patients versus patients with fatty, cirrhotic and recently transplanted livers (5 days post operation)", "value": "differing rates of CLF elimination"}]}, {"smiles": "C[C@H](CCC(=O)O)[C@H]1CC[C@H]2[C@@H]3[C@H](O)C[C@@H]4C[C@H](O)CC[C@]4(C)[C@H]3C[C@H](O)[C@]12C", "note": "[cholic acid]", "values": [{"measurement": "60 min plasma retention", "setting": "[3]; FHF patients who survived", "value": 60, "unit": "%"}, {"measurement": "60 min plasma retention", "setting": "[3]; healthy volunteers, 60 min compared with 10 min", "value": "8±1", "unit": "%"}, {"measurement": "60 min plasma retention", "setting": "[3]; patients with fulminant hepatic failure (FHF) who subsequently died", "value": 71, "unit": "%"}]}, {"smiles": "C[C@H](CCC(=O)NCC(=O)O)[C@H]1CC[C@H]2[C@@H]3[C@H](O)C[C@@H]4C[C@H](O)CC[C@]4(C)[C@H]3C[C@H](O)[C@]12C", "note": "[cholyl glycine]", "values": [{"measurement": "t1/2 first exponential", "setting": "[4]", "value": "1.7 ± 0.1", "unit": "min"}, {"measurement": "t1/2 second exponential", "setting": "[4]", "value": "7 ± 0.1", "unit": "min"}]}]}
